# Laboratory results: US20250176599A1, “FLAVOR COMPOSITION AND FOOD AND BEVERAGE” (TAKASAGO INTERNATIONAL CORPORATION, priority 2021, published 2025)
# Columns and labels:
# [1] = Sensory evaluation of aqueous solution VI containing 1,5-octadien-3-ol 10 ppb: off-flavor intensity and masking component intensity; settings: aqueous solution VI, average panel score
# Experimental: (§1) In ion-exchanged water, each degradation component was added to achieve the concentrations listed in Table 1, and aqueous solutions I to VI containing these degradation components were prepared.
# (§2) For the aforementioned aqueous solutions containing degradation components, nootkatone was added at the concentrations listed in Table 2 to confirm the intensity of the off-flavor (masking effect) in each sample and the intensity of the masking component itself (the impact on the flavor of the food and/or beverage itself).
# (§3) The test was conducted as follows. Eight experienced panelists were selected to conduct a sensory evaluation. The intensity of the off-flavor of the aqueous solution containing the degradation components derived from unsaturated fatty acids, without added masking components, was set as “Evaluation: 4.” The ion-exchanged water free of any degradation components was set as “Evaluation: 0.” The intensity of the off-flavor (masking effect) of each sample was then relatively evaluated according to the following evaluation criteria.
# (§4) • Off-flavor is strongly sensed: 4 points • Off-flavor is sensed: 3 points • Off-flavor is slightly sensed: 2 points • Off-flavor is barely sensed: 1 point • Off-flavor is not sensed at all: 0 points
# (§5) Also, the intensity of the masking components (impact on the flavor of the food and/or beverage itself) was absolutely evaluated according to the following evaluation criteria.
# (§6) • Masking component is strongly sensed: 4 points • Masking component is sensed: 3 points • Masking component is slightly sensed: 2 points • Masking component is barely sensed: 1 point • Masking component is not sensed at all: 0 points
# [2] = Sensory evaluation of aqueous solution II containing (E)-2-octenal 10 ppb: off-flavor intensity and masking component intensity; settings: average panel score
# Experimental: as §1, §2, §3, §4, §5, §6
# [3] = Overall conclusion of the sensory evaluation across aqueous solutions I to VI
# Experimental: as §1, §2, §3, §4, §5, §6
# [4] = Sensory evaluation of aqueous solution V containing 1-octen-3-ol 10 ppb: off-flavor intensity and masking component intensity; settings: average panel score
# Experimental: as §1, §2, §3, §4, §5, §6
# [5] = Sensory evaluation of aqueous solution III containing 1-octen-3-one 1 ppb: off-flavor intensity and masking component intensity; settings: average panel score
# Experimental: as §1, §2, §3, §4, §5, §6
# [6] = Sensory evaluation of aqueous solution I containing (E)-2-nonenal 1 ppb: off-flavor intensity and masking component intensity; settings: average panel score
# Experimental: as §1, §2, §3, §4, §5, §6
# [7] = Sensory evaluation of aqueous solution IV containing 1,5-octadien-3-one 100 ppt: off-flavor intensity and masking component intensity; settings: aqueous solution IV, average panel score
# Experimental: as §1, §2, §3, §4, §5, §6
structure (smiles),measurement,setting,value
CC(C)C=C(C=O)c1ccccc1 [4-methyl-2-phenyl-2-pentenal],Masking Component Intensity,[1]; 1 ppb added,0.3
same,Off-Flavor Intensity,[1]; 1 ppb added,1.8
same,Masking Component Intensity,[1]; 1 ppm added,1.8
same,Off-Flavor Intensity,[1]; 1 ppm added,0.9
same,Masking Component Intensity,[1]; 5 ppm added,2.4
same,Off-Flavor Intensity,[1]; 5 ppm added,0.4
same,Masking Component Intensity,[1]; 10 ppb added,0.8
same,Off-Flavor Intensity,[1]; 10 ppb added,1.4
same,Masking Component Intensity,[1]; 10 ppm added,3.1
same,Off-Flavor Intensity,[1]; 10 ppm added,0.4
same,Masking Component Intensity,[1]; 50 ppm added,3.5
same,Off-Flavor Intensity,[1]; 50 ppm added,0.1
same,Masking Component Intensity,[1]; 100 ppb added,1.3
same,Off-Flavor Intensity,[1]; 100 ppb added,1.0
same,Masking Component Intensity,[1]; 100 ppt added,0.0
same,Off-Flavor Intensity,[1]; 100 ppt added,2.1
same,Masking Component Intensity,[2]; 1 ppb added,0.5
same,Off-Flavor Intensity,[2]; 1 ppb added,2.8
same,Masking Component Intensity,[2]; 1 ppm added,2.1
same,Off-Flavor Intensity,[2]; 1 ppm added,1.6
same,Masking Component Intensity,[2]; 5 ppm added,2.6
same,Off-Flavor Intensity,[2]; 5 ppm added,1.4
same,Masking Component Intensity,[2]; 10 ppb added,1.1
same,Off-Flavor Intensity,[2]; 10 ppb added,2.5
same,Masking Component Intensity,[2]; 10 ppm added,3.4
same,Off-Flavor Intensity,[2]; 10 ppm added,1.0
same,Masking Component Intensity,[2]; 50 ppm added,3.9
same,Off-Flavor Intensity,[2]; 50 ppm added,0.6
same,Masking Component Intensity,[2]; 100 ppb added,1.6
same,Off-Flavor Intensity,[2]; 100 ppb added,2.0
same,Masking Component Intensity,[2]; 100 ppt added,0.4
same,Off-Flavor Intensity,[2]; 100 ppt added,3.0
same,"concentration that masks the off-flavor and does not affect the flavor of the food and/or beverage itself, lower limit",[3],≥ 100 ppt
same,"concentration that masks the off-flavor and does not affect the flavor of the food and/or beverage itself, upper limit",[3],≤ 10 ppm
same,Masking Component Intensity,[4]; 1 ppb added,0.8
same,Off-Flavor Intensity,[4]; 1 ppb added,2.3
same,Masking Component Intensity,[4]; 1 ppm added,2.4
same,Off-Flavor Intensity,[4]; 1 ppm added,1.1
same,Masking Component Intensity,[4]; 5 ppm added,2.8
same,Off-Flavor Intensity,[4]; 5 ppm added,0.8
same,Masking Component Intensity,[4]; 10 ppb added,1.4
same,Off-Flavor Intensity,[4]; 10 ppb added,1.8
same,Masking Component Intensity,[4]; 10 ppm added,3.5
same,Off-Flavor Intensity,[4]; 10 ppm added,0.6
same,Masking Component Intensity,[4]; 50 ppm added,3.9
same,Off-Flavor Intensity,[4]; 50 ppm added,0.5
same,Masking Component Intensity,[4]; 100 ppb added,1.6
same,Off-Flavor Intensity,[4]; 100 ppb added,1.6
same,Masking Component Intensity,[4]; 100 ppt added,0.6
same,Off-Flavor Intensity,[4]; 100 ppt added,2.8
same,Masking Component Intensity,[5]; 1 ppb added,0.9
same,Off-Flavor Intensity,[5]; 1 ppb added,3.4
same,Masking Component Intensity,[5]; 1 ppm added,2.5
same,Off-Flavor Intensity,[5]; 1 ppm added,2.1
same,Masking Component Intensity,[5]; 5 ppm added,3.0
same,Off-Flavor Intensity,[5]; 5 ppm added,1.8
same,Masking Component Intensity,[5]; 10 ppb added,1.4
same,Off-Flavor Intensity,[5]; 10 ppb added,3.1
same,Masking Component Intensity,[5]; 10 ppm added,3.5
same,Off-Flavor Intensity,[5]; 10 ppm added,1.6
same,Masking Component Intensity,[5]; 50 ppm added,3.8
same,Off-Flavor Intensity,[5]; 50 ppm added,1.3
same,Masking Component Intensity,[5]; 100 ppb added,1.8
same,Off-Flavor Intensity,[5]; 100 ppb added,2.6
same,Masking Component Intensity,[5]; 100 ppt added,0.5
same,Off-Flavor Intensity,[5]; 100 ppt added,3.6
same,Masking Component Intensity,[6]; 1 ppb added,0.5
same,Off-Flavor Intensity,[6]; 1 ppb added,2.8
same,Masking Component Intensity,[6]; 1 ppm added,1.9
same,Off-Flavor Intensity,[6]; 1 ppm added,1.6
same,Masking Component Intensity,[6]; 5 ppm added,2.9
same,Off-Flavor Intensity,[6]; 5 ppm added,1.1
same,Masking Component Intensity,[6]; 10 ppb added,0.9
same,Off-Flavor Intensity,[6]; 10 ppb added,2.3
same,Masking Component Intensity,[6]; 10 ppm added,3.8
same,Off-Flavor Intensity,[6]; 10 ppm added,0.5
same,Masking Component Intensity,[6]; 50 ppm added,4.0
same,Off-Flavor Intensity,[6]; 50 ppm added,0.3
same,Masking Component Intensity,[6]; 100 ppb added,1.4
same,Off-Flavor Intensity,[6]; 100 ppb added,1.8
same,Masking Component Intensity,[6]; 100 ppt added,0.4
same,Off-Flavor Intensity,[6]; 100 ppt added,3.3
same,Masking Component Intensity,[7]; 1 ppb added,0.4
same,Off-Flavor Intensity,[7]; 1 ppb added,3.6
same,Masking Component Intensity,[7]; 1 ppm added,1.9
same,Off-Flavor Intensity,[7]; 1 ppm added,2.3
same,Masking Component Intensity,[7]; 5 ppm added,2.3
same,Off-Flavor Intensity,[7]; 5 ppm added,2.0
same,Masking Component Intensity,[7]; 10 ppb added,1.0
same,Off-Flavor Intensity,[7]; 10 ppb added,3.0
same,Masking Component Intensity,[7]; 10 ppm added,3.0
same,Off-Flavor Intensity,[7]; 10 ppm added,1.4
same,Masking Component Intensity,[7]; 50 ppm added,3.6
same,Off-Flavor Intensity,[7]; 50 ppm added,1.0
same,Masking Component Intensity,[7]; 100 ppb added,1.4
same,Off-Flavor Intensity,[7]; 100 ppb added,2.6
same,Masking Component Intensity,[7]; 100 ppt added,0.3
same,Off-Flavor Intensity,[7]; 100 ppt added,3.6
